Assay results reported in patent US9073880B2, “2-(2-phenylethenyl) 1,3-benzodiazepine derivatives useful for the treatment of cancer” (Yissum Research Development Company of the Hebrew …, priority 2010, dated 2015).
pIC50: −log10 of the molar value.

Legend:
Assay type in all cases: cell-based
[1] = test system: Human ovary cancer A2780 cells; assay: Cell proliferation, A2780 (Example 4); settings: compound in 2-hydroxypropyl-β-cyclodextrin
Procedure: (§1) Human ovary cancer A2780 cells lines were seeded at a density of 5000 cells/well, human melanoma A375 cells were plated at a density of 2,500 cells/well, human colon carcinoma HCT15 cells were plated at a density of 3,000 cells/well, human prostate carcinoma PC3 cells were plated at a density of 1,500 cells/well, human breast carcinoma MCF7 cells were plated at a density of 5,000 cells/well, human breast carcinoma MDA MB 468 cells were plated at a density of 6,000 cells/well, human myeloma U266, RPMI8226 and CAG cells were plated at a density of 10,000 cells/well. All cells were plated in 96-well plates in 90 μl growth medium containing 10% FCS, 100 units/ml penicillin and 100 μg/ml streptomycin. Compound 3 was added a day later in […] of 1% DMSO in DDW to obtain final concentrations of 0, 0.1, 0.3, 1, 3, and 10 μM. The final concentration of DMSO (0.1% DMSO) was kept constant in all samples. Following exposure of the cells to compound 3 for 72 hours at 37° C., adhered cells were fixed in 0.5% gluteraldehyde in medium for 10 min, washed three times with DDW, once with 0.1M sodium borate buffer pH 8.5 and stained with 1% methylene blue dissolved in 0.1M borate buffer solution for 60 min. Excess dye was washed out and cell-bound dye was eluted with 200 μl/well of 0.1M HCl. The optical density values were read at 630 nm in ELISA plate reader. Non-adhered cells were exposed to WST-1 reagent for 5 hours following 72 hours treatment with the inhibitors, and optical density values were read at 630 nm in ELISA plate reader. The data was analyzed in Microsoft Excel, using the vehicle control as 100% proliferation. The assays were performed in triplicates. The values of IC50 were derived from the dose-dependent growth curves obtained.
(§2) Cell proliferation assay was performed as described in Example 2. […]

[2] = test system: human multiple myeloma CAG cells; assay: Cell proliferation, CAG (Example 4); settings: compound in 2-hydroxypropyl-β-cyclodextrin
Procedure: as §1, §2

[3] = test system: human lymphoma KARPAS cells; assay: Cell proliferation, KARPAS (Example 4); settings: compound in 2-hydroxypropyl-β-cyclodextrin
Procedure: as §1, §2

[4] = test system: human gastric cancer NCI-N87 cells; assay: Cell proliferation, NCI-N87 (Example 4); settings: compound in 2-hydroxypropyl-β-cyclodextrin
Procedure: as §1, §2

[5] = test system: human osteosarcoma Saos-2 cells; assay: Cell proliferation, Saos-2 (Example 4); settings: Saos-2, osteosarcoma, compound in 2-hydroxypropyl-β-cyclodextrin
Procedure: as §1, §2

[6] = test system: human hepatocarcinoma HepG2 cells; assay: Cell proliferation, HepG2 (Example 4); settings: compound in 2-hydroxypropyl-β-cyclodextrin
Procedure: as §1, §2

[7] = test system: human prostate carcinoma PC3 cells; assay: Cell proliferation, PC3 (Example 4); settings: PC-3, PC3, prostate cancer, compound in 2-hydroxypropyl-β-cyclodextrin
Procedure: as §1, with “Following exposure of the cells to compound 3 for 72 hours at 37° C., adhered cells were fixed in 0.5% gluteraldehyde in medium for 10 min, washed three times with DDW, once with 0.1M sodium borate buffer pH 8.5 and stained with 1% methylene blue dissolved in 0.1M borate buffer solution for 60 min. Excess dye was washed out and cell-bound dye was eluted with 200 μl/well of 0.1M HCl.” left out, “The assays were performed in triplicates. The values of IC50 were derived from the dose-dependent growth curves obtained.” left out

[8] = test system: human bladder carcinoma T24P cells; assay: Cell proliferation, T24P (Example 4); settings: compound in 2-hydroxypropyl-β-cyclodextrin
Procedure: as §1, §2

[9] = test system: human leukemia K562 cells; assay: Cell proliferation, K562 (Example 4); settings: compound in 2-hydroxypropyl-β-cyclodextrin
Procedure: as §1
(§3) Cell proliferation assay was performed as described in Example 2. The following cell line were plated in 96-well plates in 90 μl growth medium containing 10% FCS, 100 units/ml penicillin and 100 μg/ml streptomycin: human ovary cancer A2780 cells (4500 cells/well), human melanoma A375 (1500 cells/well) and YUMAC (2500 cells/well) cells, human colon carcinoma HCT15 (3000 cells/well) and HCT116 (2000 cells/well) cells, human prostate carcinoma PC3 (3000 cells/well), PC3MM2 (3500 cells/well) and DU145 (300 cells/well) cells, human hepatocarcinoma HepG2 (3000 cells/well), human Ewing sarcoma SK-ES-1 (4,500 cells/well), human glioblastoma U138MG (2,000 cells/well), human breast cancer T47D (4000 cells/well) and MDA-MB-468 (6000 cells/well) cells, human small cell lung carcinoma NCI-H1975 (5000 cells/well) cells, human osteosarcoma Saos-2 (5000 cells/well) cells, human pancreatic cancer ASPC (2500 cells/well) cells, human bladder carcinoma T24P (1000 cells/well) cells, human gastric cancer NCI-N87 (5000 cells/well) cells, human lymphoma KARPAS (5,000 cells/well) cells, human leukemia K562 (5,000 cells/well) cells and human multiple myeloma MM1S (10,000 cells/well), U266 (10,000 cells/well) and CAG (5,000 cells/well). Compounds 2-5 and 7-8 were added a day later in 10 μl of 0.7% 2-hydroxypropyl-β-cyclodextrin to obtain final concentrations of 0, 0.1, 0.3, 1, 3 and 10 μM.
(§4) Compounds 2-5 and 7-8 of the present invention were tested for their inhibitory potential in cell proliferation assay. […]

[10] = test system: human melanoma YUMAC cells; assay: Cell proliferation, YUMAC (Example 4); settings: compound in 2-hydroxypropyl-β-cyclodextrin
Procedure: as §1, §3, §4

[11] = test system: human Ewing sarcoma SK-ES-1 cells; assay: Cell proliferation, SK-ES-1 (Example 4); settings: SK-ES1, SK-ES-1, Ewing sarcoma, compound in 2-hydroxypropyl-β-cyclodextrin
Procedure: as §1, §2

Structure (SMILES)	pIC50 [1]	pIC50 [2]	pIC50 [3]	pIC50 [4]	pIC50 [5]	pIC50 [6]	pIC50 [7]	pIC50 [8]	pIC50 [9]	pIC50 [10]	pIC50 [11]
O=c1c(O)cc2cnc(/C=C/c3cc(O)c(O)c(Br)c3)sc-2c1O [Compound 3]	6.40	6.05	6.30	5.35	5.51	6.05	6.15	5.22	6.30	6.52	6.52
O=c1c(O)cc2cnc(/C=C/c3ccc(O)c(O)c3Br)sc-2c1O [Compound 5]	6.40	6.15	6.05	5.40	5.55	5.80	–	5.19	6.30	6.70	6.22
